Measurements published in ChEMBL document CHEMBL1125573 (J Med Chem, 1992).

Assays:
[1] = biological target: Serotonin 2 (5-HT2) receptor (Rattus norvegicus, UniProt P30994+P08909+P14842); test: The compound was tested in vitro for binding affinity towards 5-hydroxytryptamine 2 receptor by displacing [125]I-LSD radioligand; format: protein assay
[2] = biological target: Dopamine D2 receptor/Serotonin 2 (5-HT2) receptor (Rattus norvegicus) (UniProt P61169+P30994+P08909+P14842); test: Relative binding affinity for dopamine D2 and 5-HT2 receptors; format: protein assay
Dopamine D2 receptor/Serotonin 2 (5-HT2) receptor (Rattus norvegicus), sequence (P08909 whole entry, looked up): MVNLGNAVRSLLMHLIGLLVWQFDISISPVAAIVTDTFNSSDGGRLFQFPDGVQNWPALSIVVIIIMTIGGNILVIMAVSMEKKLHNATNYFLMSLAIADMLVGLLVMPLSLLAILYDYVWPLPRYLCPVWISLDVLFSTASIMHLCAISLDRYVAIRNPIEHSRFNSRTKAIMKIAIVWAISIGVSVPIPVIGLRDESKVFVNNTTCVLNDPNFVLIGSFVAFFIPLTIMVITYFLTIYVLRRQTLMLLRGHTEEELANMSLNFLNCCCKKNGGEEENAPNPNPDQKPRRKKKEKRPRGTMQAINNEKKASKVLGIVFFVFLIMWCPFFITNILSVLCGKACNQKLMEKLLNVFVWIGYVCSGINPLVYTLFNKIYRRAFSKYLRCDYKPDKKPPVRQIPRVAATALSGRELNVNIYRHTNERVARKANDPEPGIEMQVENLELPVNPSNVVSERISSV
Dopamine D2 receptor/Serotonin 2 (5-HT2) receptor (Rattus norvegicus), sequence (P14842 whole entry, looked up): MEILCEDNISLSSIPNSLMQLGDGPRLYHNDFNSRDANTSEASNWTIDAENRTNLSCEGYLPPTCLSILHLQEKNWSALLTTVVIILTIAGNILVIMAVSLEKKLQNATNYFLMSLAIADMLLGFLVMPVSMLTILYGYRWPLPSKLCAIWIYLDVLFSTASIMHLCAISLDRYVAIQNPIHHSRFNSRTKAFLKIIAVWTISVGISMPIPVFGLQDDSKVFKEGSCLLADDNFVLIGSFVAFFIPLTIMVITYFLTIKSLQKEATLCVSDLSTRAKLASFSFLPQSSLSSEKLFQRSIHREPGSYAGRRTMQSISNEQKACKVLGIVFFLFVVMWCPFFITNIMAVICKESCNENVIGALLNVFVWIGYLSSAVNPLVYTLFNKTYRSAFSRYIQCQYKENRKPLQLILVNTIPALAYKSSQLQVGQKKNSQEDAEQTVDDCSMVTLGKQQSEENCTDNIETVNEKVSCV
Dopamine D2 receptor/Serotonin 2 (5-HT2) receptor (Rattus norvegicus), sequence (P30994 whole entry, looked up): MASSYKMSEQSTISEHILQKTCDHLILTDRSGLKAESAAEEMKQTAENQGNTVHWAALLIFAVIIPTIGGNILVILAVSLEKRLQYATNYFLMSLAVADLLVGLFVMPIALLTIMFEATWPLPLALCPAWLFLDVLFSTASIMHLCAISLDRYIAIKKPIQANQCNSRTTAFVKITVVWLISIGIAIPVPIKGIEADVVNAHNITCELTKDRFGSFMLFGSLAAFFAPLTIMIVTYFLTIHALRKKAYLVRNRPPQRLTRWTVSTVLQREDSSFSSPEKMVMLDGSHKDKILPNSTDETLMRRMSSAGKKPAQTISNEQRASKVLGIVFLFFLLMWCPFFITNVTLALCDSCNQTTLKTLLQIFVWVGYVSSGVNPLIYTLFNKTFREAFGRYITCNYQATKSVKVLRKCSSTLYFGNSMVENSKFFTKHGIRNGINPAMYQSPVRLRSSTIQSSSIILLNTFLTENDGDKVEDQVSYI
Dopamine D2 receptor/Serotonin 2 (5-HT2) receptor (Rattus norvegicus), sequence (P61169 whole entry, looked up): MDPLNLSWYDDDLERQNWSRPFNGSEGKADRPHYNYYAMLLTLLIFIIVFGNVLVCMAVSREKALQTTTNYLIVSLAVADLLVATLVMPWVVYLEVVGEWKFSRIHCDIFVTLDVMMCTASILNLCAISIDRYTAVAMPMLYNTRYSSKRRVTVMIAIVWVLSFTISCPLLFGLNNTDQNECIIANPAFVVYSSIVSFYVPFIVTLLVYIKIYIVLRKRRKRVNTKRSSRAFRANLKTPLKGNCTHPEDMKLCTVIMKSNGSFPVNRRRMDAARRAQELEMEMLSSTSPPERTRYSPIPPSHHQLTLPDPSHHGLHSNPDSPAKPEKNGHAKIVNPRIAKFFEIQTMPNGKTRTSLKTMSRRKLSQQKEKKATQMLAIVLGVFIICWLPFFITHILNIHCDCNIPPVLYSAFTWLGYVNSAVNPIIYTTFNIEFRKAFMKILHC

D(2) dopamine receptor [3] = biological target: T1, D(2) dopamine receptor (Rattus norvegicus, UniProt P61169); test: Displacement of [3H]spiperone from dopamine receptor D2
T1 sequence (P61169 whole entry): as the sequence (P61169 whole entry, looked up) above

D(2) dopamine receptor [4] = biological target: T1, D(2) dopamine receptor; test: Binding affinity towards Dopamine receptor D2 by displacing [3H]spiperone

SMILES: CCCCCN1CN(c2ccccc2)C2(CCN(CCCC(=O)c3ccc(F)cc3)CC2)C1=O
- Ki [1]: 1100 pM
- Ratio [2]: 18
- Ki (D(2) dopamine receptor [3]): 62 pM

SMILES: O=C(CCCN1CCC2(CC1)C(=O)N(Cc1ccccc1I)CN2c1ccccc1)c1ccc(F)cc1
- Ki [1]: 19000 pM
- Ki (D(2) dopamine receptor [4]): 63 pM

SMILES: O=C(CCCN1CCC2(CC1)C(=O)N(Cc1ccc(F)cc1)CN2c1ccccc1)c1ccc(F)cc1
- Ki [1]: 21000 pM
- Ratio [2]: 300
- Ki (D(2) dopamine receptor [3]): 69 pM

SMILES: CC(C)CN1CN(c2ccccc2)C2(CCN(CCCC(=O)c3ccc(F)cc3)CC2)C1=O
- Ki [1]: 130 pM
- Ratio [2]: 3.3
- Ki (D(2) dopamine receptor [3]): 39 pM

SMILES: CC(C)CCN1CN(c2ccccc2)C2(CCN(CCCC(=O)c3ccc(F)cc3)CC2)C1=O
- Ki [1]: 1300 pM
- Ratio [2]: 21
- Ki (D(2) dopamine receptor [3]): 63 pM

SMILES: O=C(CCCN1CCC2(CC1)C(=O)N(Cc1ccccc1)CN2c1ccccc1)c1ccc(F)cc1
- Ki [1]: 3200 pM
- Ratio [2]: 140
- Ki (D(2) dopamine receptor [3]): 23 pM

SMILES: COc1ccccc1CN1CN(c2ccccc2)C2(CCN(CCCC(=O)c3ccc(F)cc3)CC2)C1=O
- Ki [1]: 1900 pM
- Ki (D(2) dopamine receptor [4]): 47 pM

SMILES: O=C(CCCN1CCC2(CC1)C(=O)N(Cc1ccccc1[N+](=O)[O-])CN2c1ccccc1)c1ccc(F)cc1
- Ki [1]: 680 pM
- Ki (D(2) dopamine receptor [4]): 120 pM

SMILES: CN1CN(c2ccccc2)C2(CCN(CCCC(=O)c3ccc(F)cc3)CC2)C1=O [MESPIPERONE]
- Ki [1]: 550 pM
- Ki (D(2) dopamine receptor [4]): 118 pM

SMILES: CCCCN1CN(c2ccccc2)C2(CCN(CCCC(=O)c3ccc(F)cc3)CC2)C1=O
- Ki [1]: 410 pM
- Ratio [2]: 11
- Ki (D(2) dopamine receptor [3]): 36 pM

SMILES: CCN1CN(c2ccccc2)C2(CCN(CCCC(=O)c3ccc(F)cc3)CC2)C1=O
- Ki [1]: 310 pM
- Ki (D(2) dopamine receptor [4]): 57 pM

SMILES: O=C(CCCN1CCC2(CC1)C(=O)N(Cc1cccc(F)c1)CN2c1ccccc1)c1ccc(F)cc1
- Ki [1]: 5300 pM
- Ratio [2]: 230
- Ki (D(2) dopamine receptor [3]): 23 pM

SMILES: O=C(CCCN1CCC2(CC1)C(=O)N(Cc1ccccc1F)CN2c1ccccc1)c1ccc(F)cc1
- Ki [1]: 4400 pM
- Ratio [2]: 100
- Ki (D(2) dopamine receptor [3]): 43 pM

SMILES: COc1ccc(CN2CN(c3ccccc3)C3(CCN(CCCC(=O)c4ccc(F)cc4)CC3)C2=O)cc1
- Ki [1]: 12000 pM
- Ki (D(2) dopamine receptor [4]): 87 pM

SMILES: CCCN1CN(c2ccccc2)C2(CCN(CCCC(=O)c3ccc(F)cc3)CC2)C1=O
- Ki [1]: 96 pM
- Ratio [2]: 3.3
- Ki (D(2) dopamine receptor [3]): 29 pM

SMILES: Cc1ccc(CN2CN(c3ccccc3)C3(CCN(CCCC(=O)c4ccc(F)cc4)CC3)C2=O)cc1
- Ki [1]: 37000 pM
- Ki (D(2) dopamine receptor [4]): 67 pM

SMILES: O=C(CCCN1CCC2(CC1)C(=O)N(CCc1ccccc1)CN2c1ccccc1)c1ccc(F)cc1
- Ki [1]: 1000 pM
- Ratio [2]: 29
- Ki (D(2) dopamine receptor [3]): 35 pM

SMILES: Cc1ccccc1CN1CN(c2ccccc2)C2(CCN(CCCC(=O)c3ccc(F)cc3)CC2)C1=O
- Ki [1]: 9600 pM
- Ratio [2]: 290
- Ki (D(2) dopamine receptor [3]): 33 pM

SMILES: O=C(CCCN1CCC2(CC1)C(=O)N(Cc1ccc([N+](=O)[O-])cc1)CN2c1ccccc1)c1ccc(F)cc1
- Ki [1]: 14000 pM
- Ki (D(2) dopamine receptor [4]): 119 pM

SMILES: O=C(CCCN1CCC2(CC1)C(=O)N(Cc1ccc(I)cc1)CN2c1ccccc1)c1ccc(F)cc1
- Ki [1]: 89000 pM
- Ki (D(2) dopamine receptor [4]): 213 pM
